# Results from patent publication US8017807B2, “Tetrahydroxy compound, method for preparing the tetrahydroxy compound, and photoreceptor using the tetrahydroxy compound” (Ricoh Company Limited, priority 2005, dated 2011).
# Key:
# [1] = Solubility to alcohol (methanol), visual observation; assay type: physicochemical; settings: background section, no method given
# [2] = Crosslinked outermost layer of photoreceptor from methanol coating liquid; image formation; settings: with methyl trimethoxy silane in methanol
# Method: Preparation of Crosslinked Charge Transport Layer Using Sol-Gel Method
# The following components were mixed.
# The mixture was agitated for one hour at room temperature to perform a reaction. Then 53.4 mg of tris(2,4-pentanedionate)aluminum (III) was added to the mixture to prepare a coating liquid including methanol as a solvent.
# The coating liquid was coated on the above-prepared charge transport layer by a spray coating method and then dried to form an outermost layer with a thickness of 2 μm. The photoreceptor was heated for 1 hour at 130° C. to crosslink the outermost layer.
# The photoreceptor was set in the main body of the image forming apparatus (IMAGIO NEO) to produce images. The resultant images had good image qualities.
# The procedure for preparation of the outermost layer in Applied Example 1 was repeated except that the compound of Example 1 was replaced with each of the comparative compounds (6) to (9).
# [3] = Solubility to alcohol (methanol), visual observation; assay type: physicochemical; parameters: key to Solubility to methanol, solid content 5% by weight / Solubility to methanol, solid content 10% by weight / Solubility to methanol, solid content 20% by weight / Solubility to methanol, solid content 30% by weight / Solubility to methanol, solid content 40% by weight / Solubility to methanol, solid content 50% by weight / Solubility to methanol, solid content 60% by weight: ◯: The compound is perfectly dissolved in methanol, and the resultant liquid contains no solid material.; X: The compound is imperfectly dissolved in methanol and the resultant liquid contains a solid material or is opaque (i.e., is not transparent); settings: for Solubility to methanol, solid content 5% by weight / Solubility to methanol, solid content 10% by weight / Solubility to methanol, solid content 20% by weight / Solubility to methanol, solid content 30% by weight / Solubility to methanol, solid content 40% by weight / Solubility to methanol, solid content 50% by weight / Solubility to methanol, solid content 60% by weight: methanol solution, one hour at room temperature, visual
# Method: Each of the compound of Example 1 and comparative compounds (6) to (9) was dissolved in methanol to prepare methanol solutions thereof having a solid content of 5%, 10%, 20%, 30%, 40%, 50% or 60% by weight. Alter the solutions were allowed to settle for one hour at room temperature, the solutions were visually observed to determine the solubility of the compounds to methanol. The solubility to methanol was graded as follows:
# ◯: The compound is perfectly dissolved in methanol, and the resultant liquid contains no solid material.
# X: The compound is imperfectly dissolved in methanol and the resultant liquid contains a solid material or is opaque (i.e., is not transparent).
# [4] = Film formability when mixed 1:1 with alcohol-soluble polyamide resin (CM8000), blade-coated layer; assay type: physicochemical; parameters: key to Film formability: ◯: The resultant layer is transparent.; X: The resultant layer is opaque due to crystallization of the compounds or bad compatibility with the resin; settings: for Film formability: 1:1 by weight with polyamide resin CM8000, solid content 20% by weight, 20 μm layer on aluminum plate, dried at 23° C.; for Film formability (in words): mixed with an alcohol-soluble resin
# Method: In addition, each of the compound of Example 1 and comparative compounds (6) to (9) was mixed with an alcohol-soluble polyamide resin (CM8000 from Toray Industries, Inc.) in a weight ratio of 1:1 such that the solid content of the mixture is 20% by weight. Each of the mixtures was coated on an aluminum plate by a blade coating method and then dried at room temperature (23° C.) to prepare a layer with a thickness of 20 μm. The thus prepared layers were visually observed to determine the film formability of the layers. The film formability was graded as follows:
# ◯: The resultant layer is transparent.
# X: The resultant layer is opaque due to crystallization of the compounds or bad compatibility with the resin.
Solubility to methanol (present inventors' study of prior-art compounds) [1],Preparation of outermost layer coating liquid in methanol [2],Solubility to methanol (in words) [3],"Solubility to methanol, solid content 5% by weight [3]","Solubility to methanol, solid content 10% by weight [3]","Solubility to methanol, solid content 20% by weight [3]","Solubility to methanol, solid content 30% by weight [3]","Solubility to methanol, solid content 40% by weight [3]","Solubility to methanol, solid content 50% by weight [3]","Solubility to methanol, solid content 60% by weight [3]",Film formability [4],SMILES,Film formability (in words) [4]
insufficient,–,–,–,–,–,–,–,–,–,–,"Cc1ccc(N(c2ccc(C)cc2)c2ccc(C(C)(c3ccc(O)cc3)c3ccc(O)cc3)cc2)cc1 [1,1-bis(4-hydroxyphenyl)-1-[4-(paraditolylamino)phenyl]ethane]",–
–,coating liquids could not be prepared,poor solubility to methanol,◯,◯,◯,◯,X,X,X,X,Cc1ccc(N(c2ccc(C)cc2)c2ccc(C(C)(c3ccc(O)cc3)c3ccc(O)cc3)cc2)cc1 [Comp. compound (6)],–
–,coating liquids could not be prepared,poor solubility to methanol,◯,◯,◯,X,X,X,X,X,Oc1cccc(N(c2ccccc2)c2ccc(-c3ccc(N(c4ccccc4)c4cccc(O)c4)cc3)cc2)c1 [Comp. compound (7)],–
–,coating liquid could be prepared,–,◯,◯,◯,◯,X,X,X,X,CCc1ccc(N(c2ccc(CCO)cc2)c2ccc(CCO)cc2)cc1C [Comp. compound (8)],–
–,coating liquids could not be prepared,poor solubility to methanol,X,X,X,X,X,X,X,–,Cc1ccc(N(c2ccc(C)cc2)c2ccc(C=C(c3ccc(OCCO)cc3)c3ccc(OCCO)cc3)cc2)cc1 [Comp. compound (9)],–
–,–,good solubility to methanol,◯,◯,◯,◯,◯,◯,◯,◯,"Cc1ccc(N(c2ccc(C)cc2)c2ccc(C=C(c3ccc(OCC(O)CO)cc3)c3ccc(OCC(O)CO)cc3)cc2)cc1 (stereo not shown) [Compound of Ex. 1, N-{4-[2,2-bis(4-(2,3-dihydroxypropyloxy)phenyl)vinyl]phenyl}-N,N-bis(4-tolyl)amine]",good film formability
–,–,as good solubility to methanol,–,–,–,–,–,–,–,–,"OCC(O)COc1ccc(N(c2ccccc2)c2ccc(-c3ccc(N(c4ccccc4)c4ccc(OCC(O)CO)cc4)cc3)cc2)cc1 (stereo not shown) [Example 2, N,N′-diphenyl-N,N′-bis[4-(2,3-dihydroxypropyloxy)phenyl]benzidine]",as good solubility to methanol and film formability as the compound of Example 1
insufficient,–,–,–,–,–,–,–,–,–,–,"Oc1cccc(N(c2ccccc2)c2ccc(-c3ccc(N(c4ccccc4)c4cccc(O)c4)cc3)cc2)c1 [N,N′-diphenyl-N,N′-bis(3-hydroxyphenyl)-[1,1′-biphenyl]-4,4′-diamine]",–
